“Also recorded” adds a separate entry of the source. Counter-ions that a name gives are not always drawn.
Experiments:
[1] = Mouse pharmacokinetic natural product-drug interaction study; assay type: in vivo, C57BL/6 mice; details: for Cmax / AUC0-4h / AUC0-24h / Metabolite-to-parent AUC0-4h ratio / Metabolite-to-parent AUC0-24h ratio / AUC(0-t): geometric mean (CV%); for tmax: median (range)
[2] = Drug solubility in simulated intestinal fluids; assay type: physicochemical
[3] = cited from earlier work
[4] = cited from earlier work; remark: listed apart in the source
[5] = rats; oral administration of EGCG and sunitinib; cited from earlier work
[6] = rats; EGCG group (control group 79%); cited from earlier work
[7] = FaSSIF pH 6.5
[8] = FeSSIF pH 5.0
[9] = mice, plasma, raloxifene 20 mg/kg oral with EGCG 12.96 mg/kg
[10] = mice, plasma, raloxifene 20 mg/kg oral with green tea extract 200 mg/kg
[11] = mice, raloxifene 20 mg/kg oral alone in vehicle
[12] = mice, raloxifene 20 mg/kg oral with EGCG 12.96 mg/kg
[13] = mice, raloxifene 20 mg/kg oral with green tea extract 200 mg/kg

O=C(c1ccc(OCCN2CCCCC2)cc1)c1c(-c2ccc(O)cc2)sc2cc(O[C@@H]3O[C@H](C(=O)O)[C@@H](O)[C@H](O)[C@H]3O)ccc12 [Raloxifene-6-glucuronide, raloxifene-6-glucuronide]
Cmax ([1]; mice, plasma, raloxifene 20 mg/kg oral with EGCG 12.96 mg/kg (0, 4, 8 h)): 820 nM
AUC0-4h [1, 9]: 1200 (53) nM•h
AUC0-24h [1, 9]: 2150 (52) nM•h
Cmax ([1]; mice, plasma, raloxifene 20 mg/kg oral with green tea extract 200 mg/kg (0, 4, 8 h)): 288 nM
AUC0-4h [1, 10]: 624 (31) nM•h
AUC0-24h [1, 10]: 1560 (32) nM•h
Metabolite-to-parent AUC0-4h ratio [1, 11]: 2.74 (30)
Metabolite-to-parent AUC0-24h ratio [1, 11]: 2.23 (36)
tmax [1, 11]: 0.25 (0.25 - 0.5) h
Metabolite-to-parent AUC0-4h ratio [1, 12]: 3.74 (25)
Metabolite-to-parent AUC0-24h ratio [1, 12]: 2.48 (38)
tmax [1, 12]: 0.5 (0.25 - 4) h
Metabolite-to-parent AUC0-4h ratio [1, 13]: 3.12 (34)
Metabolite-to-parent AUC0-24h ratio [1, 13]: 2.33 (24)
tmax [1, 13]: 0.25 (0.25 - 0.5) h

O=C(c1ccc(OCCN2CCCCC2)cc1)c1c(-c2ccc(O)cc2)sc2cc(O)ccc12 [Raloxifene, Raloxifene hydrochloride]
raloxifene solubility in FeSSIF compared to FaSSIF ([2]; FeSSIF pH 5.0 vs FaSSIF pH 6.5): 3.4 fold
overt effects in the mice after administration ([1]; during the study): No overt effects
AUC(0-t) ([1]; male, C57BL/6, mouse, plasma, po, 20 mg/kg, AUC0-4h, mice, raloxifene 20 mg/kg oral with EGCG 12.96 mg/kg): 0.322 µM·h
AUC(0-t) ([1]; male, C57BL/6, mouse, plasma, po, 20 mg/kg, AUC0-4h, mice, raloxifene 20 mg/kg oral with green tea extract 200 mg/kg): 0.2 µM·h
AUC(0-t) ([1]; male, C57BL/6, mouse, plasma, po, 20 mg/kg, AUC0-24h, mice, raloxifene 20 mg/kg oral with EGCG 12.96 mg/kg): 0.867 µM·h
AUC(0-t) ([1]; male, C57BL/6, mouse, plasma, po, 20 mg/kg, AUC0-24h, mice, raloxifene 20 mg/kg oral with green tea extract 200 mg/kg): 0.669 µM·h
Cmax ([1]; male, C57BL/6, mouse, plasma, po, 20 mg/kg, Cmax, mice, raloxifene 20 mg/kg oral with EGCG 12.96 mg/kg (0, 4, 8 h)): 168 nM
Cmax ([1]; male, C57BL/6, mouse, plasma, po, 20 mg/kg, Cmax, mice, raloxifene 20 mg/kg oral with green tea extract 200 mg/kg (0, 4, 8 h)): 79 nM
tmax ([1]; male, C57BL/6, mouse, plasma, po, 20 mg/kg, tmax, mice, raloxifene 20 mg/kg oral with EGCG 12.96 mg/kg): 0.5 h
tmax ([1]; male, C57BL/6, mouse, plasma, po, 20 mg/kg, tmax, mice, raloxifene 20 mg/kg oral with green tea extract 200 mg/kg): 4 h
logP [3]: 5.78
oral bioavailability [4]: ~ 2%

O=C(O[C@@H]1Cc2c(O)cc(O)cc2O[C@@H]1c1cc(O)c(O)c(O)c1)c1cc(O)c(O)c(O)c1 [EGCG, (−)-epigallocatechin gallate]
effect on Cmax of raloxifene and raloxifene-6-glucuronide (in words) ([1]; mice, compared to vehicle group, EGCG 12.96 mg/kg): no effect
reduction of sunitinib AUC0-∞ [5]: 52%
reduction of sunitinib Cmax [5]: 48%
intestinal absorption of cholesterol from a test meal [6]: 63%
effect on raloxifene solubility in FaSSIF (in words) [7]: decreased the solubility
effect on raloxifene solubility (concentration) in FeSSIF (in words) [8]: neither green tea extract nor EGCG significantly affected; also recorded: did not change; also recorded: Neither green tea extract nor EGCG had a significant effect

CC(C)(C)NCC(O)COc1cccc2c1CC(O)C(O)C2 (centres unmarked) [Nadolol]
solubility in simulated intestinal fluids (in words) ([2]; at 0.16 mg/mL): completely soluble
logP [3]: 0.85

Reference: publication PMC10939713 (Pharmaceutical research, 2024)
